Data taken from the supplement of paper PMC8149375.

How the values were obtained:
Conditions in all cases: treatment: drug alone; 5 days
769-P [1] = assay: GI50, drug alone; higher = less potent
Procedure: (§1)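 Primary HTS: 8 RCC cell lines treated with 8 doses (up to 10 uM) of each library drug alone for 5 days; viability read by CellTiter-Glo and normalised to DMSO. GI50 was fitted with XLfit (4-parameter), AUC is the area under the dose-response curve, and minimum viability is the lowest fraction of DMSO viability across doses.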

786-O [2] = assay: GI50, drug alone; higher = less potent
Procedure: as §1

A498 [3] = assay: GI50, drug alone; higher = less potent
Procedure: as §1

ACHN [4] = assay: GI50, drug alone; higher = less potent
Procedure: as §1

CAKI-1 [5] = assay: GI50, drug alone; higher = less potent
Procedure: as §1

SN12C [6] = assay: GI50, drug alone; higher = less potent
Procedure: as §1

TK-10 [7] = assay: GI50, drug alone; higher = less potent
Procedure: as §1

UO-31 [8] = assay: GI50, drug alone; higher = less potent
Procedure: as §1

769-P [9] = assay: minimum viability across doses, drug alone, relative to DMSO (fraction); higher = less growth inhibition
Procedure: as §1

786-O [10] = assay: as above
Procedure: as §1

A498 [11] = assay: as above
Procedure: as §1

ACHN [12] = assay: as above
Procedure: as §1

CAKI-1 [13] = assay: as above
Procedure: as §1

SN12C [14] = assay: as above
Procedure: as §1

TK-10 [15] = assay: as above
Procedure: as §1

UO-31 [16] = assay: as above
Procedure: as §1

769-P [17] = assay: AUC of dose-response viability curve, drug alone (arbitrary (AUC of normalised viability)); higher = less growth inhibition
Procedure: as §1

786-O [18] = assay: as above
Procedure: as §1

A498 [19] = assay: as above
Procedure: as §1

ACHN [20] = assay: as above
Procedure: as §1

CAKI-1 [21] = assay: as above
Procedure: as §1

SN12C [22] = assay: as above
Procedure: as §1

TK-10 [23] = assay: as above
Procedure: as §1

UO-31 [24] = assay: as above
Procedure: as §1

Structure (SMILES) | GI50, drug alone (769-P [1]) [µM] | GI50, drug alone (786-O [2]) [µM] | GI50, drug alone (A498 [3]) [µM] | GI50, drug alone (ACHN [4]) [µM] | GI50, drug alone (CAKI-1 [5]) [µM] | GI50, drug alone (SN12C [6]) [µM] | GI50, drug alone (TK-10 [7]) [µM] | GI50, drug alone (UO-31 [8]) [µM] | minimum viability across doses (769-P [9]) | minimum viability across doses (786-O [10]) | minimum viability across doses (A498 [11]) | minimum viability across doses (ACHN [12]) | minimum viability across doses (CAKI-1 [13]) | minimum viability across doses (SN12C [14]) | minimum viability across doses (TK-10 [15]) | minimum viability across doses (UO-31 [16]) | AUC of dose-response viability curve (769-P [17]) | AUC of dose-response viability curve (786-O [18]) | AUC of dose-response viability curve (A498 [19]) | AUC of dose-response viability curve (ACHN [20]) | AUC of dose-response viability curve (CAKI-1 [21]) | AUC of dose-response viability curve (SN12C [22]) | AUC of dose-response viability curve (TK-10 [23]) | AUC of dose-response viability curve (UO-31 [24])
c1ccc2c(CCNc3ccc(Nc4ccncc4)cc3)c[nH]c2c1 | 0.532 | > 10 | 1.36 | 0.136 | 0.66 | 0.881 | 1.03 | 0.115 | 0.0434 | 0.00353 | 0.022 | 0.00286 | 0.0912 | 0.0036 | 0.00837 | 0.00809 | 2.32 | 0.978 | 2.76 | 1.55 | 2.31 | 2.28 | 2.34 | 1.6
O=c1cc(N2CCOCC2)oc2c(-c3ccccc3)cccc12 | > 10 | > 10 | > 10 | > 10 | > 10 | > 10 | > 10 | > 10 | 0.617 | 0.559 | 0.929 | 0.723 | 0.642 | 0.765 | 0.684 | 0.858 | 3.1 | 2.62 | 3.75 | 2.91 | 3.37 | 3.36 | 2.97 | 3.98
O=c1cc(-c2cccc3c2Sc2ccccc2S3)oc(N2CCOCC2)c1 | > 10 | > 10 | > 10 | 0.0705 | > 10 | > 10 | > 10 | > 10 | 0.864 | 0.638 | 0.864 | 0.496 | 0.648 | 0.864 | 0.791 | 0.981 | 3.21 | 2.98 | 3.49 | 2.57 | 3.06 | 3.23 | 3.14 | 4
C=CC(=O)N1CCC[C@@H](n2nc(-c3ccc(Oc4ccccc4)cc3)c3c(N)ncnc32)C1 | 1.83 | > 10 | > 10 | 3.93 | 7.05 | > 10 | 1.43 | > 10 | 0.301 | 0.529 | 0.946 | 0.394 | 0.335 | 0.706 | 0.225 | 0.949 | 2.53 | 2.3 | 6.43 | 2.53 | 3.19 | 2.88 | 2.31 | 4.29
Cc1cc(Nc2cc(CN3CCOCC3)c3nc(C)c(Cc4ccc(Cl)cc4F)n3n2)[nH]n1 | 4.13 | 0.3 | 8.52 | 1.98 | 2.28 | 3.84 | 3.03 | 7.64 | 0.063 | 0.00692 | 0.338 | 0.103 | 0.0334 | 0.216 | 0.0389 | 0.0145 | 3.12 | 1.96 | 4.33 | 2.79 | 3.03 | 2.89 | 2.8 | 4.69
CN1CCN(c2ccc([N+](=O)[O-])c3no[n+]([O-])c23)CC1 | > 10 | > 10 | > 10 | > 10 | > 10 | > 10 | > 10 | > 10 | 0.865 | 0.536 | 0.889 | 0.822 | 0.881 | 0.832 | 0.3 | 0.867 | 2.59 | 2.38 | 3.92 | 2.98 | 3.27 | 3.13 | 2.91 | 3.8
CC(C)(C)Cn1c(N)nc2ccc(-c3[nH]c(C(C)(C)C)nc3-c3ccc(F)cc3)nc21.CS(=O)(=O)O.CS(=O)(=O)O | > 10 | > 10 | > 10 | 2.19 | 8.16 | > 10 | 6.63 | > 10 | 0.709 | 0.636 | 0.972 | 0.407 | 0.512 | 0.811 | 0.564 | 0.733 | 2.98 | 2.91 | 4.16 | 2.41 | 2.63 | 3.15 | 2.43 | 3.5
COc1ccc(-c2ccc3c(N4CCOCC4)nc(N4C[C@@H](C)O[C@@H](C)C4)nc3n2)cc1CO | 2.12 | 0.772 | 4.9 | 0.592 | 1.08 | 1.36 | 0.724 | 1.63 | 0.214 | 0.26 | 0.379 | 0.141 | 0.174 | 0.223 | 0.222 | 0.012 | 2.66 | 2.03 | 3.62 | 2.23 | 2.53 | 2.49 | 2.23 | 2.98
Cn1cc(-c2ccc3nnc(C(F)(F)c4ccc5ncccc5c4)n3n2)cn1 | > 10 | > 10 | > 10 | > 10 | > 10 | > 10 | > 10 | > 10 | 0.868 | 0.862 | 1.05 | 0.792 | 0.59 | 0.93 | 0.799 | 1.12 | 3.38 | 3.59 | 4.15 | 3.24 | 2.4 | 3.44 | 3.33 | 4.62
